# pIC50: −log10 of the molar value. Like-named read-outs stand apart in the source and are kept apart here.
# Tests used:
# [1] = target: T1, FLT3 phosphorylation in MV4-11 tumors (Homo sapiens, UniProt P36888, INS600HVDFREYEYD); assay: FLT3 phosphorylation in MV4-11 tumors, Compound D; assay type: in vivo, nude mice; settings: tumors harvested 6 hours later
# T1 construct: host or cells: MV4-11 human AML cells (in culture, or as xenograft tumors in nude mice)
# T1 sequence (P36888 with tags, fused parts or gaps INS600HVDFREYEYD): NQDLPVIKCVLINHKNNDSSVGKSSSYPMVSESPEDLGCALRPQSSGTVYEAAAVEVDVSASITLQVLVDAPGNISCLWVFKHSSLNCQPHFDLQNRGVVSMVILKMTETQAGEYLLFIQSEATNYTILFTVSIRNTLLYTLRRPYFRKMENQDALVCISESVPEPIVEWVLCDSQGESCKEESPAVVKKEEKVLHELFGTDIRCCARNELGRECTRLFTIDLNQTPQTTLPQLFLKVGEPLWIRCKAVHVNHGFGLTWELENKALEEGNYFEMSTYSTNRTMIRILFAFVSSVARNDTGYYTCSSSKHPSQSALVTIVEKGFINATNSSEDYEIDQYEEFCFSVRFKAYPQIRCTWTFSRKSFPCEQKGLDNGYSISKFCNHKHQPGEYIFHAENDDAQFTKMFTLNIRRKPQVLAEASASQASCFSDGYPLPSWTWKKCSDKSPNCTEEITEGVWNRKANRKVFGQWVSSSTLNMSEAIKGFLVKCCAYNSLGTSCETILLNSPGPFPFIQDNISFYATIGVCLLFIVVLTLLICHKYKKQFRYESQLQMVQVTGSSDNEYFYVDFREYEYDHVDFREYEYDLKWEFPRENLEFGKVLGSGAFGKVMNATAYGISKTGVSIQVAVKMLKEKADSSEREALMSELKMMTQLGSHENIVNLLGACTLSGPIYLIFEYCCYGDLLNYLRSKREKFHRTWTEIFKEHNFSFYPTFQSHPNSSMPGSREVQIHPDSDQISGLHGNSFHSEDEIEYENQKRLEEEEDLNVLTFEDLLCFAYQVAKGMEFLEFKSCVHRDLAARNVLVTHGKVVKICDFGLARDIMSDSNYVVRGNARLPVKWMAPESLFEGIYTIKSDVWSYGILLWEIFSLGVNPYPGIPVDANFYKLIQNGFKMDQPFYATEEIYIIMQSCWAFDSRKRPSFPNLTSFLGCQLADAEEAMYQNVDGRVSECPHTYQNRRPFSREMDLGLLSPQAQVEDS
# Description: Tumors were harvested 6 hours later and snap frozen for assessment of FLT3 phosphorylation by western blots.
# Harvested tumors were frozen and processed for immunoblot analysis of FLT3 phosphorylation in the following manner: 200 mg of tumor tissue was dounce homogenized in lysis buffer (50 mM Hepes, 150 mM NaCl, 10% Glycerol, 1% Triton —X-100, 10 mM NaF, 1 mM EDTA, 1.5 mM MgCl2, 10 mM NaPyrophosphate) supplemented with phosphatase (Sigma Cat# P2850) and protease inhibitors (Sigma Cat #P8340). Insoluble debris was removed by centrifugation at 1000×g for 5 minutes at 4° C.
# Immunoprecipitated FLT3 from tumor lysates were then washed four times with lysis buffer and separated by SDS-PAGE. […] Blots were then stripped and reprobed with anti-FLT3 antibody for normalization of phosphorylation signals.
# MV4-11 tumor xenografts = settings: for inhibition of mean tumor volume compared to vehicle-treated group: Day 11
# MV-4-11 tumor xenografts = assay: MV-4-11 tumor xenografts, FLT3 inhibitor Compound D administered with Tipifarnib; assay type: in vivo, nude mice; settings: Compound D 25 mg/kg bid oral, Day 16
# Description: The starting mean tumor volume for each treatment group was approximately 250 mm3.
# Dosing was continued for sixteen consecutive days.
# MV4-11 AML cells = assay: 72-hour cell proliferation assay, single agents and FTI/FLT3 inhibitor combinations, MV4-11; assay type: cell-based; settings: Homo sapiens, IC50 of the FLT3 inhibitor, alone or within the labelled combination, average of three experiments
# Description: Dose responses for the individual compounds alone were determined for each cell line using a standard 72-hour cell proliferation assay (see FIGS. 6.1-6.8). The standard chemotherapeutic agent Cytarabine was used as a control cytotoxic agent in all experiments. […] The FLT3 inhibitors, Compounds A, B, C, D, E, F G and H, individually have good potency (sub-micromolar) for the inhibition of FLT3 driven proliferation (compared to the first line cytotoxic agent Cytarabine and Tipifarnib) in cells that depend on FLT3 for growth. Each of these chemically distinct compounds alone has potential for the treatment of disorders related to FLT3, such as FLT3 positive AML. […]
# To statistically evaluate the synergy of a FLT3 inhibitor and an FTI in FLT3 dependent cell lines, dosing combinations were evaluated by the method of Chou and Talalay. See Chou T C, Talalay P. (1984) “Quantitative analysis of dose-effect relationships: the combined effects of multiple drugs or enzyme inhibitors.” Adv Enzyme Regul. […] Using this method, multiple FTI and FLT3 combinations were evaluated. […]
# Cell proliferation assay for MV4-11, Baf3-ITD, Baf3-FLT3 and THP-1 cells. […] Total cell growth is quantified as the difference in luminescent counts (relative light units, RLU) of cell number at Day 0 compared to total cell number at Day 3 (72 hours of growth and/or compound treatment). […]
structure (smiles),measurement,setting,value
"CN(C)CC(=O)N1CCC(c2ccc(NC(=O)c3nc(C#N)c[nH]3)c(C3=CCCCC3)c2)CC1 [Compound 38, 4-Cyano-1H-imidazole-2-carboxylic acid {2-cyclohex-1-enyl-4-[1-(2-dimethylamino-acetyl)-piperidin-4-yl]-phenyl}-amide]",level of FLT3 phosphorylation in MV4-11 tumors,[1]; single dose 10 mg/kg po,partial reduction
same,level of FLT3 phosphorylation in MV4-11 tumors,[1]; single dose 100 mg/kg po,biologically significant reduction
same,tumor growth compared to vehicle-treated control group,MV4-11 tumor xenografts; 10 mg/kg b.i.d. oral,no significant growth delay
same,final tumor weight,MV4-11 tumor xenografts; 10 mg/kg dose,no significant decrease
same,"tumor regression, decrease versus starting mean tumor volume on Day 1",MV4-11 tumor xenografts; 50 mg/kg b.i.d. oral,98%
same,inhibition of mean tumor volume compared to vehicle-treated group,MV4-11 tumor xenografts; 50 mg/kg b.i.d. oral,~100%
same,final tumor weight,MV4-11 tumor xenografts; 50 mg/kg dose,no measurable tumor mass detectable
same,"tumor regression, decrease versus starting mean tumor volume on Day 1",MV4-11 tumor xenografts; 100 mg/kg b.i.d. oral,93%
same,inhibition of mean tumor volume compared to vehicle-treated group,MV4-11 tumor xenografts; 100 mg/kg b.i.d. oral,~100%
same,"mice with palpable, measurable tumor on study day 34","MV4-11 tumor xenografts; 100 mg/kg, dosing stopped on Day 12, tumor allowed to re-grow",6/12
same,body weight compared to starting body weight,MV4-11 tumor xenografts; across all dose groups,no significant loss of body weight
same,inhibition of tumor volume compared to vehicle-treated control group,MV-4-11 tumor xenografts,76%
same,pIC50,MV4-11 AML cells,7.86

# Reference: patent publication US8557847B2, “Synergistic modulation of FLT3 kinase using a FLT3 inhibitor and a farnesyl transferase inhibitor” (Janssen Pharmaceutica, N.V., priority 2005, dated 2013)
